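Following 48 hours of exposure in 96-well plates, responses at five concentrations were used to interpolate endpoints linearly. The concentration for 50% growth inhibition is given as GI50. TGI denotes the concentration required for complete inhibition of growth.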

The record followed here is PubChem BioAssay (NCI).

Among the test systems are 786-0 renal; CAKI-1 renal; DU-145 prostate; HOP-62 NSCLC; HOP-92 NSCLC; IGROV1 ovarian; MDA-MB-231 breast; OVCAR-3 ovarian; RXF 393 renal; SF-295 CNS.
Assay in all cases: inhibition of tumour cell growth, NCI panel, 48 h

For `CC(=C/c1ccccc1)/C=C1/NC(=S)N(/C=C2\C(=O)Oc3ccccc3C2=O)C1=O`, the GI50 in the assay on 786-0 renal is 57.6 µM; in the assay with CAKI-1 renal, 59.7 µM; in the assay on IGROV1 ovarian, 86.7 µM. Besides, the TGI with 786-0 renal was more than 100 µM; in the assay on CAKI-1 renal, more than 100 µM; in the assay with DU-145 prostate, more than 100 µM; in the assay with HOP-62 NSCLC, more than 100 µM; in the assay with HOP-92 NSCLC, more than 65 µM; in the assay on IGROV1 ovarian, more than 100 µM. Also, the TGI with MDA-MB-231 breast was more than 100 µM; with OVCAR-3 ovarian it was more than 100 µM; in the assay with RXF 393 renal, more than 52.4 µM; in the assay with SF-295 CNS, more than 100 µM.

`Cn1cc(C2=C(N3CCOCC3)C(=O)NC2=O)c2ccccc21`: the GI50 is more than 25 µM with 786-0 renal; more than 25 µM in the assay with CAKI-1 renal; more than 25 µM in the assay with DU-145 prostate; more than 25 µM in the assay with HOP-62 NSCLC; 14.7 µM with HOP-92 NSCLC; more than 25 µM in the assay on IGROV1 ovarian. Besides, the GI50 in the assay on MDA-MB-231 breast, in the assay with OVCAR-3 ovarian, in the assay on RXF 393 renal and in the assay on SF-295 CNS was more than 25 µM throughout. Besides, the TGI with 786-0 renal, in the assay on CAKI-1 renal, in the assay on DU-145 prostate, in the assay with HOP-62 NSCLC, in the assay with HOP-92 NSCLC and in the assay on IGROV1 ovarian was more than 25 µM in each case. Also, the TGI in the assay with MDA-MB-231 breast, with OVCAR-3 ovarian, in the assay with RXF 393 renal and in the assay with SF-295 CNS was more than 25 µM each time.

Consider `CCN(CC)c1ccc(/C=C/C=C2\NC(=O)NC2=O)cc1`, for which the GI50 with 786-0 renal was 2.93 µM; in the assay on CAKI-1 renal, 2.65 µM; with DU-145 prostate it was 3.36 µM; in the assay with HOP-62 NSCLC it was 3.64 µM; in the assay on HOP-92 NSCLC it was 1.74 µM; in the assay on IGROV1 ovarian, 3.57 µM. Further, the GI50 was 10.5 µM with MDA-MB-231 breast, 1.95 µM with OVCAR-3 ovarian, 1.03 µM in the assay with RXF 393 renal and 1.54 µM in the assay with SF-295 CNS. Besides, the TGI in the assay with 786-0 renal was 34.2 µM; in the assay on CAKI-1 renal it was more than 100 µM; in the assay on DU-145 prostate, 25.4 µM; in the assay with HOP-62 NSCLC it was more than 100 µM; in the assay on HOP-92 NSCLC, 24.2 µM; with IGROV1 ovarian, more than 100 µM. For the same molecule, the TGI in the assay with MDA-MB-231 breast was more than 100 µM; with OVCAR-3 ovarian, 5.29 µM; in the assay with RXF 393 renal it was 5.93 µM; with SF-295 CNS, more than 100 µM.

As for `Oc1c(CN2CCN(c3ccccc3)CC2)cc(Br)c2cccnc12`, the TGI was 14.5 µM with 786-0 renal; more than 100 µM in the assay with CAKI-1 renal; 13.8 µM in the assay on DU-145 prostate; 15.2 µM in the assay on HOP-62 NSCLC; 30.8 µM in the assay on HOP-92 NSCLC; more than 100 µM with IGROV1 ovarian. The TGI was 15.7 µM in the assay on MDA-MB-231 breast, more than 79.5 µM in the assay with OVCAR-3 ovarian, 13.5 µM in the assay on RXF 393 renal and more than 95 µM in the assay on SF-295 CNS.

As to `O=C(O)c1cc2ccccc2c2c1C(=O)c1ccccc1-2`, the TGI in the assay with 786-0 renal, in the assay on CAKI-1 renal, in the assay with DU-145 prostate, in the assay on HOP-62 NSCLC, in the assay on HOP-92 NSCLC and with IGROV1 ovarian was more than 100 µM in each case. Moreover, the TGI in the assay on MDA-MB-231 breast, in the assay with OVCAR-3 ovarian, in the assay with RXF 393 renal and in the assay on SF-295 CNS was more than 100 µM in each case.

Take `Cc1cc(C(=O)c2ccccc2)c(C)c2c1[nH]c1ccc(Cl)cc12`: the GI50 with 786-0 renal is 0.0629 µM; with CAKI-1 renal, 0.0521 µM; with DU-145 prostate, 0.112 µM; in the assay with HOP-62 NSCLC, 0.067 µM; in the assay with HOP-92 NSCLC, 1.71 µM; with IGROV1 ovarian, 0.0657 µM. Also, the GI50 in the assay with MDA-MB-231 breast is 0.255 µM; in the assay on OVCAR-3 ovarian it was 0.0426 µM; in the assay on RXF 393 renal, 0.0235 µM; in the assay with SF-295 CNS, 0.0294 µM. In addition, the TGI is 3.51 µM in the assay with 786-0 renal; 6.05 µM in the assay with CAKI-1 renal; more than 42.1 µM in the assay with DU-145 prostate; 23 µM in the assay on HOP-62 NSCLC; 21.2 µM in the assay with HOP-92 NSCLC; 15.7 µM in the assay with IGROV1 ovarian. In addition, the TGI with MDA-MB-231 breast was determined as 5.71 µM; in the assay with OVCAR-3 ovarian, 9.8 µM; in the assay with RXF 393 renal it was 0.0771 µM; in the assay with SF-295 CNS, 0.363 µM.

With `CC(=O)c1nc2ccccc2n1CC(=O)c1cccc(Cl)c1`, the GI50 is 0.886 µM in the assay on 786-0 renal; 2.78 µM with CAKI-1 renal; 0.647 µM with DU-145 prostate; 1.69 µM in the assay with HOP-62 NSCLC; 0.543 µM with IGROV1 ovarian; 1.07 µM in the assay on MDA-MB-231 breast. The GI50 with OVCAR-3 ovarian is 0.239 µM; in the assay with RXF 393 renal, 0.264 µM; with SF-295 CNS, 1.27 µM. The TGI in the assay on 786-0 renal is more than 41.4 µM; in the assay on CAKI-1 renal, more than 20.1 µM; with DU-145 prostate, more than 31.8 µM; in the assay on HOP-62 NSCLC, more than 56.5 µM; in the assay with HOP-92 NSCLC, more than 86.2 µM; in the assay with IGROV1 ovarian it was more than 100 µM. The TGI in the assay with MDA-MB-231 breast was more than 100 µM; in the assay on OVCAR-3 ovarian, more than 100 µM; in the assay with RXF 393 renal, 0.88 µM; in the assay with SF-295 CNS, more than 23.2 µM.

For `CC(C)(C)c1ccc(NS(=O)(=O)c2ccc3nc(NC(=O)c4cnccn4)[nH]c3c2)cc1`, the GI50 was 3.35 µM with 786-0 renal; 4.64 µM with CAKI-1 renal; 3.17 µM in the assay with DU-145 prostate; 2.88 µM with HOP-62 NSCLC; 1.5 µM with HOP-92 NSCLC; 1.49 µM with IGROV1 ovarian. In addition, the GI50 was 4.34 µM in the assay on MDA-MB-231 breast, 0.654 µM in the assay with OVCAR-3 ovarian, 1.41 µM in the assay on RXF 393 renal and 0.743 µM with SF-295 CNS. Besides, the TGI was found to be 14.8 µM in the assay with 786-0 renal; 17.5 µM with CAKI-1 renal; 11.5 µM in the assay on DU-145 prostate; 15.8 µM in the assay with HOP-62 NSCLC; 5.92 µM in the assay on HOP-92 NSCLC; 13.9 µM with IGROV1 ovarian. In addition, the TGI in the assay with MDA-MB-231 breast was found to be 17.1 µM; in the assay on OVCAR-3 ovarian, 3.03 µM; in the assay with RXF 393 renal, 4.28 µM; with SF-295 CNS it was 5.09 µM.
